Values of other authors in patent US20040023948A1, “Fast-dispersing dosage form containing 5-HT1 agonists” (priority 1997, published 2004).

Details: Vogel conflict test in rats; Gammans et al. 1986

c1cnc(N2CCNCC2)nc1 [Example 1-PP, 1-pyrimidinylpiperazine]
activity relative to unchanged buspirone: ≤ 20%
